Molecules are shown by their SMILES.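 96-well plates; 48 h exposure; 5 concentrations. Endpoints by linear interpolation between flanking doses. Not reached: highest tested concentration assigned. TGI is the concentration that stops growth completely.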

Among the test systems are 786-0 renal; ACHN renal; BT-549 breast; COLO 205 colon; HCT-15 colon; KM12 colon; MALME-3M melanoma; NCI-H226 lung; NCI-H23 lung; NCI-H522 lung; PC-3 prostate; U251 CNS; HOP-92 NSCLC; SR leukemia.
What all share (assay): DTP human tumour cell line panel, 48 h

As a reminder, the TGI is the concentration giving total growth inhibition. Read a low TGI as greater sensitivity of the cells. As for `CSc1nncc2[nH]c(C)nc12`, the TGI in the assay on 786-0 renal, in the assay on ACHN renal, with BT-549 breast, with COLO 205 colon, in the assay with HCT-15 colon and in the assay with KM12 colon was above 100 µM in each case. For the same molecule, the TGI in the assay on MALME-3M melanoma, with NCI-H226 lung, in the assay with NCI-H23 lung, in the assay with NCI-H522 lung, in the assay on PC-3 prostate and in the assay on U251 CNS was above 100 µM in each case.
As to `O=C(NCCCN(CCCCN(CCCNC(=O)C(F)(F)F)CCCc1ccccc1)CCCc1ccccc1)C(F)(F)F`, the TGI with 786-0 renal was 2.86 µM; with ACHN renal it was 3.42 µM; in the assay on BT-549 breast it was 7.34 µM; with COLO 205 colon it was 3.11 µM; in the assay on HCT-15 colon it was 2.98 µM; in the assay with HOP-92 NSCLC it was 4.63 µM. The TGI in the assay with KM12 colon stood at 3.65 µM; in the assay with MALME-3M melanoma it was 3.34 µM; in the assay on NCI-H226 lung it was 27 µM; in the assay on NCI-H23 lung, 25.3 µM; in the assay on NCI-H522 lung it was 3.51 µM; with U251 CNS, 3.56 µM.
As to `N#CC1(C#N)C2CCCCC23OC(=N)C1(C#N)C(c1ccccc1)O3` (stereo not given), the TGI with 786-0 renal was 33.7 µM; in the assay on ACHN renal, above 100 µM; with BT-549 breast, 34.7 µM; in the assay with COLO 205 colon it was 34.1 µM; with HCT-15 colon, 28.6 µM; in the assay on HOP-92 NSCLC, 33.6 µM. In addition, the TGI in the assay with KM12 colon was 25.8 µM; with MALME-3M melanoma, 34.5 µM; with NCI-H226 lung, above 100 µM; in the assay on NCI-H23 lung it was above 100 µM; with PC-3 prostate it was 55.4 µM; with U251 CNS, 69.6 µM.
Consider `O=C(O)c1cccnc1`, for which the TGI with 786-0 renal, in the assay on ACHN renal, in the assay on COLO 205 colon, with HCT-15 colon, in the assay on HOP-92 NSCLC and in the assay with KM12 colon was above 100 µM each time. Moreover, the TGI in the assay on MALME-3M melanoma, with NCI-H226 lung, in the assay on NCI-H23 lung, in the assay with NCI-H522 lung, with PC-3 prostate and in the assay on SR leukemia was above 100 µM in each case. In addition, the TGI in the assay with U251 CNS is above 100 µM.
As to `CC(C)=CCc1c(O)ccc2ccc(=O)oc12`, the TGI in the assay on COLO 205 colon is above 100 µM; in the assay on HCT-15 colon, above 100 µM; in the assay with HOP-92 NSCLC, 94.6 µM; with KM12 colon, above 100 µM; in the assay with MALME-3M melanoma it was above 100 µM; in the assay with NCI-H226 lung, above 100 µM. Further, the TGI in the assay with NCI-H23 lung, in the assay with NCI-H522 lung and in the assay with U251 CNS was above 100 µM in each case.
`C#CCN(CC#C)C(=O)C(=O)c1c[nH]c2ccc(OC)cc12`: the TGI in the assay on 786-0 renal worked out at 31 µM; in the assay on ACHN renal, 65.1 µM; with COLO 205 colon, 60 µM; in the assay on HCT-15 colon, 29.5 µM; with HOP-92 NSCLC it was 33.2 µM; with KM12 colon it was 30.6 µM. Besides, the TGI is 32.7 µM in the assay on MALME-3M melanoma; 38.7 µM with NCI-H226 lung; 50.5 µM in the assay with NCI-H23 lung; 23.2 µM in the assay on SR leukemia; 27.6 µM in the assay on U251 CNS.
As to `COc1ccc(/C=N/n2c(-c3ccccc3)n[nH]c2=O)cc1`, the TGI with 786-0 renal, with ACHN renal, in the assay with BT-549 breast, with COLO 205 colon, with HCT-15 colon and in the assay with KM12 colon was above 100 µM in each case. The TGI in the assay with MALME-3M melanoma, with NCI-H226 lung, in the assay with NCI-H23 lung, with PC-3 prostate and in the assay on U251 CNS was above 100 µM in each case.
In the case of `COc1cc(/C=C/C(=O)O)ccc1C(=O)OCc1ccccc1`, the TGI in the assay on COLO 205 colon, with HCT-15 colon, in the assay with HOP-92 NSCLC, in the assay with KM12 colon, in the assay with MALME-3M melanoma and in the assay on NCI-H226 lung was above 100 µM each time. In addition, the TGI in the assay on NCI-H23 lung, with NCI-H522 lung and in the assay on U251 CNS was above 100 µM in each case.
Consider `COC(=O)C1C=CN(N(C)C)C2=C1C(=O)c1c(O)cccc1C2=O` (stereo not given), for which the TGI was found to be 11.4 µM with 786-0 renal; 12.4 µM in the assay with ACHN renal; 3.86 µM with BT-549 breast; 3.66 µM in the assay with COLO 205 colon; 5.16 µM in the assay with HCT-15 colon; 6.95 µM in the assay on KM12 colon. In addition, the TGI in the assay with MALME-3M melanoma is 2.93 µM; in the assay on NCI-H226 lung, 3.94 µM; in the assay on NCI-H23 lung, 4.11 µM; in the assay on NCI-H522 lung, 5.95 µM; in the assay with PC-3 prostate, above 100 µM; in the assay with U251 CNS it was 11.8 µM.
For the molecule `COc1ccc(-c2nc(SCC(=O)N/N=C/c3ccc(O)c(OC)c3)[nH]c2-c2ccc(OC)cc2)cc1`, the TGI in the assay on 786-0 renal turned out to be 42 µM; in the assay on ACHN renal, 32.5 µM; in the assay with BT-549 breast, 44.1 µM; in the assay with COLO 205 colon, 34.4 µM; in the assay with HCT-15 colon, 82.8 µM; in the assay with HOP-92 NSCLC it was 66.1 µM. Moreover, the TGI in the assay with KM12 colon is above 100 µM; in the assay on MALME-3M melanoma, 81.8 µM; in the assay on NCI-H23 lung, 49.2 µM; in the assay with NCI-H522 lung, 53.8 µM; with PC-3 prostate it was above 100 µM; in the assay with U251 CNS it was 40.8 µM.
Consider `Cc1cc(OCc2nnc3n2N=C(c2cc(F)c(Cl)cc2Cl)/C(=C/c2ccc(Cl)cc2)S3)ccc1Cl`, for which the TGI with 786-0 renal was above 100 µM; in the assay with ACHN renal, above 100 µM; with HCT-15 colon, 63.4 µM; in the assay with HOP-92 NSCLC, 45.8 µM; with KM12 colon it was 60.2 µM; in the assay with NCI-H226 lung, above 100 µM. In addition, the TGI in the assay with NCI-H23 lung was determined as 79.9 µM; in the assay with NCI-H522 lung, 36.4 µM; with PC-3 prostate, 65 µM; in the assay on SR leukemia, 30.4 µM; in the assay on U251 CNS it was 43.4 µM.
`Cc1c(O)c(C)c2c(C)cn(C(=O)C(C)(C)C)c2c1C`: the TGI in the assay on 786-0 renal came out at 36.3 µM; with ACHN renal, 35.3 µM; in the assay on COLO 205 colon it was 30.3 µM; in the assay with HCT-15 colon, 40.6 µM; with HOP-92 NSCLC, 17.5 µM; in the assay with KM12 colon it was 27.2 µM. The TGI with NCI-H226 lung is 33.5 µM; with NCI-H23 lung, 41.6 µM; with NCI-H522 lung, 56.2 µM; in the assay with PC-3 prostate it was 38.5 µM; with U251 CNS, 69 µM.

These data come from PubChem BioAssay (NCI).
